Data from patent publication US20250281465A1, “MOLECULES THAT ENHANCE EXTRACELLULAR VESICLE RELEASE” (priority 2022, published 2025).
“Also recorded” adds a separate entry of the source.

How the values were obtained:
THP-1 cells = test: Intracellular Ca2+ influx screening (Fura-2) in THP-1 cells; assay type: cell-based, human
Procedure: (§1) FIGS. 1A-1D. Intracellular Ca^2+ influx screening of 84 HTS hit candidate compounds. (A) THP-1 cells were loaded with the ratiometric Ca^2+ indicator, Fura-2, and treated with lonomycin (ION, 1 μM), Thapsigargin (1 μM), or 84 hit candidate compounds (10 μM) for 25 minutes. Data are presented as the area under the curve (AUG) of OD340/380 ratios corresponding to the intracellular Ca^2+ kinetics. The baseline-subtracted AUG was calculated using GraphPad Prism (GraphPad Software, San Diego, CA). (B) Ca^2+ mobilization by compound #634. mBMDCs were loaded with the ratiometric Ca^2+ indicator, Fura-8, and treated with ION (1 μM), or #634 (2 and 10 μM) for 25 minutes. The dashed line indicates the timing of compounds added. The data shown are representative of three independent experiments showing similar results. (C) Ca^2+ add-back assay. Fura-8-loaded mBMDC were treated with ION (1 μM), or compound #634 (2 μM, 10 μM) for 15 minutes in the absence of extracellular Ca^2+, and then Ca^2+ (final 1.8 mM) was added at 15 minutes. Data shown are representative of three independent experiments showing similar results. (D) C57BL/6 mice (n=5/group) were intramuscularly immunized with ovalbumin (OVA, 20 μg/mouse) adjuvanted with compound #634 (200 nmol/mouse), or Veh (10% DMSO) on days 0 and 21 and bled on day 28. OVA-specific IgGI and IgG2c levels in sera were determined by ELISA. **p<0.01, ***p<0.001, ns (not significant) by KruskalWallis tests with Dunn's post hoc test vs. Veh.
FIGS. 18A-18C. Compound 634 induces intracellular Ca^2+ levels in mBMDCs. […] The time-response pattern of intracellular Ca^2+ levels was recorded for 25 minutes. AUC of OD340/380 ratios corresponds to the intracellular Ca^2+ kinetics, and the baseline-subtracted AUC was calculated by GraphPad Prism. […]
FIGS. 24A-24B. […] The time-response pattern of intracellular Ca^2+ levels was recorded with a plate reader for 25 minutes. (A) The AUC of OD340/380 ratios corresponds to the intracellular Ca^2+ kinetics and the baseline-subtracted AUC was calculated by GraphPad Prism (FIG. 36). […]

mBMDCs [1] = test: Intracellular Ca2+ influx (Fura-2/Fura-8) in mBMDCs; assay type: cell-based, mouse; details: for intracellular Ca^2+ influx in mBMDCs (Fura-8): 2 and 10 μM, 25 minutes
mBMDC = test: Ca2+ add-back assay in mBMDC; assay type: cell-based, mouse; details: for intracellular Ca^2+ after adding Ca^2+ in the medium: Ca^2+ 1.8 mM added at 15 minutes; for intracellular Ca^2+ level without extracellular Ca^2+: Fura-8-loaded mBMDC, 2 μM, 10 μM, 15 minutes, absence of extracellular Ca^2+
Procedure: as §1
FIGS. 18A-18C. Compound 634 induces intracellular Ca^2+ levels in mBMDCs. (A) Intracellular Ca^2+ influx levels of the top eight compounds. THP-1 cells were loaded with the ratiometric Ca^2+ indicator, Fura-2, and treated with ION (1 μM), TG (1 μM), or test compounds (5 μM). The time-response pattern of intracellular Ca^2+ levels was recorded for 25 minutes. AUC of OD340/380 ratios corresponds to the intracellular Ca^2+ kinetics, and the baseline-subtracted AUC was calculated by GraphPad Prism. […] (B) Ca^2+ mobilization by compounds 456 and 634 in mBMDCs. mBMDCs were loaded with Fura-8 and treated with ION (1 μM), or 634 and 456 (10 μM) for 25 minutes. The dashed line indicates the timing of compounds added. The data shown are representative of three independent experiments showing similar results. (C) Ca^2+ add-back assay. Fura-8-loaded mBMDC were treated with ION (1 μM) or compound 634 (2 μM, 10 μM) for 15 minutes in the absence of extracellular Ca^2+, and then Ca^2+ (final 1.8 mM) was added at 15 minutes. The data shown are representative of three independent experiments showing similar results.

mBMDCs [2] = test: EV release from mBMDCs (differential ultracentrifugation, MRPS); details: for number of EV particles released in the culture supernatant: 46-48 h, vs Veh

Compound	intracellular Ca^2+ increase (Fura-2 assay) (THP-1 cells; hit candidate compounds 10 μM, 25 minutes, vs vehicle control (DMSO))	intracellular Ca^2+ influx in mBMDCs (Fura-8) (mBMDCs [1])	time intracellular Ca^2+ increase was sustained (mBMDCs [1]; Fura-8 assay)	intracellular Ca^2+ after adding Ca^2+ in the medium (mBMDC)	intracellular Ca^2+ level without extracellular Ca^2+ (mBMDC)	release of particles of diameter less than 150 nm (mBMDCs [2]; 10 μM)	number of EV particles released in the culture supernatant (mBMDCs [2]; 10 μM)	intracellular Ca^2+ (relative AUC of OD340/380) (THP-1 cells; validation assay, 5 μM, vs Veh 0.5% DMSO)	intracellular Ca^2+ influx by 634 and its SAR analogs (Fura-2) (mBMDCs [1]; 10 μM, vs Veh 0.5% DMSO / #634)	increase of the number of EVs released compared to Veh control (mBMDCs [2]; 634 10 μM, 48 hours, p<0.05)
CCOC(=O)c1c(NS(=O)(=O)c2cccc3c2N=S=N3)sc(C)c1C [#634, ethyl 2-(benzo[c][1,2,5]thiadiazole-4-sulfonamido)-4,5-dimethylthiophene-3-carboxylate]	higher intracellular Ca^2+ increase than vehicle control	rapidly increased intracellular Ca^2+	at least 25 min	intracellular Ca^2+ influx was restored	did not increase intracellular Ca^2+ levels without extracellular Ca^2+	significantly enhanced	increased the number of EV particles released			
CCOC(=O)c1c(NS(=O)(=O)c2cccc3nsnc23)sc(C)c1C [compound 634, Ethyl 2-(benzo[c][1,2,5]thiadiazole-4-sulfonamido)-4,5-dimethylthiophene-3-carboxylate]		induced Ca^2+ influx in mBMDCs; also recorded: comparable to ionomycin		intracellular Ca^2+ levels were restored	did not change the intracellular Ca^2+ concentration		significantly increased the number of EVs released	significantly increased intracellular Ca^2+	Ca^2+ influx positive	45%
